Entries after “also recorded” stand apart in the source; their conditions may differ.
Biological target: interaction of gp96 and AIMP1 (Mus musculus, UniProt P08113)
Experiment: ELISA assay of gp96-AIMP1 interaction
Assay type: binding, murine
Conditions: read-out: Inhibition rate (at 100 nM; %)
Method: FIGS. 1 to 9 represent suppression of cell surface gp96 by GPM1 reduces DC maturation and B220^+ population in gp96tm transgenic mice. (FIG. 1) Chemical structure of GPM1 (Formula 2) and negative control (NC1, Formula 16) used in this study. (FIG. 2) The dose-dependent effect of GPM1 or NC1 on the AIMP1-gp96 interaction using ELISA method as described. The indicated concentrations of the two compounds and biotin-conjugated murine gp96 were added to AIMP1 coated on the surface of microtiter wells, and gp96 bound to AIMP1 was detected with strepavidin-conjugated peroxidase. (FIG. 3) The binding of GPM1 to gp96 was examined by surface plasmon resonance (SPR). GPM1 at the indicated concentrations was injected to immobilized gp96 and the binding was measured using Biacore 3000. The response data were processed using data from a reference surface and buffer injections. Each concentration was tested in triplicate. (FIG. 4) RAW24.7 cells were treated with 10 μM GPM1 for 24 h. Cell lysates were immunoprecipitated with control IgG or anti-gp96 antibody and the immunoprecipitated proteins were immunoblotted with anti-KDELR1, antiAIMP1 and gp96 antibodies. WCL means whole cell lysate. (FIG. 5) Splenocytes isolated from C57BL/6 mice were treated with vehicle (5% DMSO in PBS), GPM1, or NC1 (10 μM, 24 h), stained for cell surface gp96, and followed by flow cytometry. (FIG. 6) AIMP1^+/+ or AIMP1^−/− mouse splenocytes (2×10^5 cells) were treated with vehicle, GPM1, or NC1 (10 μM, 24 h), fixed, and then co-cultured with WT bone marrow-derived DCs (1×10^4 cells) for 16 h. TNFα secreted from BMDCs was quantified by ELISA. (FIG. 7) Percentage of gp96^+ MHC class II^+ cell population in splenocytes from gp96tm transgenic female mice treated with vehicle (control) (n=9), GPM1 (n=9), and dexamethasone (n=7) at 30 mg/kg. (FIG. 8) Cell surface ICOSL of CD11b^+CD11c^+ (myeloid DCs), CD11b^−CD11c^+ (lymphoid DCs), and CD11b^+CD11c^− (macrophages) cell populations in splenocytes from gp96tm transgenic female mice treated with vehicle (n=9) and GPM1 (n=9) at 30 mg/kg. (FIG. 9) Percentage of B220^+, MHC class II^+, CD4^+, CD8^+, CD4 and CD8 double negative cell populations in splenocytes from gp96tm transgenic female mice treated with vehicle (n=9), GPM1 (n=9), and dexamethasone (n=7) at 30 mg/kg. Student t-test P values comparing GPM1-treated mice with control are indicated.
96-well plates (Maxisorp., F96; Nunc) were coated with 500 ng/well AIMP1 in PBS (pH 7.4). After washing, the remaining sites were blocked with PBS containing 1% BSA for 1 h. Binding of 10 ng/well biotin-conjugated gp96 was performed in Tris buffer (25 mM Tris, 10 mM NaCl and 0.4% Triton X-100). Each of the 6,580 compounds was added to the well at 100 nM and the plates were washed and incubated with HRP conjugated streptavidin in PBS containing 0.1% BSA and 0.1% Tween 20 for 30 min. The plates were washed, and then substrate was added to each well. The absorbance was monitored at 450 nm.
To identify chemicals that can affect membrane translocation of gp96, the present inventors employed the interaction of gp96 with AIMP1 as the screening target. For this screening, the present inventors chose 6,482 chemicals with different pharmacophore representing 150,000 different chemicals deposited in Korea Chemical Bank and identified the compounds that can inhibit the interaction of the two proteins. For the screening, the present inventors set up a modified ELISA method using recombinant AIMP1 and gp96 proteins as described in Experimental methods. Each of the tested compounds gave different effect on the interaction of the two proteins (FIG. 19). And the present inventors have selected 12 compounds that inhibited the interaction more than 95% of the control at 0.1 μM (Table 1). The present inventors obtained 1251 additional compounds derived from these 12 initial hits and tested them again for their activities against the gp96-AIMP1 interaction.

Sequence of interaction of gp96 and AIMP1 (P08113 22-802): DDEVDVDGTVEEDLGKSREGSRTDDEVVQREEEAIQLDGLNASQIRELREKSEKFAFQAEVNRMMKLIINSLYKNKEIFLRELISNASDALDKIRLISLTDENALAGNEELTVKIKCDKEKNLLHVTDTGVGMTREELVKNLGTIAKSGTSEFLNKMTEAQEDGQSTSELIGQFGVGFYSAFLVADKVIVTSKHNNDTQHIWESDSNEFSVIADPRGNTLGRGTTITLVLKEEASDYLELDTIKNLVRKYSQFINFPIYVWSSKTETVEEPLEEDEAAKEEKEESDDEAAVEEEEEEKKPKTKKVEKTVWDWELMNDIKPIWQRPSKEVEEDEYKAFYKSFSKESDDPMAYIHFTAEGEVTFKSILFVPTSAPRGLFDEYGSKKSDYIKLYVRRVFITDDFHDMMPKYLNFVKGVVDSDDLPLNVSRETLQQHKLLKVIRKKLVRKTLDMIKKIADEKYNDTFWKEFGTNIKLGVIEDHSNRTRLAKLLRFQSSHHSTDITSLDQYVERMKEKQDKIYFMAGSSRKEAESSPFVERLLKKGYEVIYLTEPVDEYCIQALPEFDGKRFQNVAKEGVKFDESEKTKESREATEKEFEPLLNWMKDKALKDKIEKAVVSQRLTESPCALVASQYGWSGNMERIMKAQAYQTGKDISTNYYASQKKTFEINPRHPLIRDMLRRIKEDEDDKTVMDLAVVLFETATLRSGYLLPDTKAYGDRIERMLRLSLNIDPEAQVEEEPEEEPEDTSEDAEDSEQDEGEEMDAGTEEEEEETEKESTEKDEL

Row | Molecule | inhibition at 0.1 µM
1 | COC(=O)C(C)Oc1nc(C)c(Cl)c(OC)n1 (centres unmarked) [Formula 3, methyl 2-(5-chloro-4-methoxy-6-methylpyrimidin-2-yloxy)propanoate] | 97%
2 | COC(=O)C(Oc1nc(OC)cc(OC)n1)c1ccc(Br)cc1 (centres unmarked) [Formula 4, methyl 2-(4-bromophenyl)-2-(4,6-dimethoxypyrimidin-2-yloxy)acetate] | 94%
3 | COC(=O)C(Oc1nc(OC)cc(OC)n1)C(C)C (centres unmarked) [Formula 5, methyl 2-(4,6-dimethoxypyrimidin-2-yloxy)-3-methylbutanoate] | 82%
4 | COC(=O)C(Oc1nc(OC)cc(OC)n1)c1cccs1 (centres unmarked) [Formula 6, methyl 2-(4,6-dimethoxypyrimidin-2-yloxy)-2-(thiophen-2-yl)acetate] | 71%
5 | COc1cc(OC)nc(OC(C(=O)O)c2ccccc2)n1 (centres unmarked) [Formula 7, 2-(4,6-dimethoxypyrimidin-2-yloxy)-2-phenylacetic acid] | 99%
6 | COc1cc(OC)nc(O[C@@H](C(=O)O)c2ccccc2)n1 [Formula 8, (R)-2-(4,6-dimethoxypyrimidin-2-yloxy)-2-phenylacetic acid] | 30%
7 | COc1nc(OCc2ccccc2)nc(OC)c1C(N)=O [Formula 9, 2-(benzyloxy)-4,6-dimethoxypyrimidine-5-carboxamide] | 90%
8 | COc1cc(OC)nc(OCc2ccccc2Cl)n1 [Formula 10, 2-(2-chlorobenzyloxy)-4,6-dimethoxypyrimidine] | 76%
9 | COc1cc(OC)nc(Oc2ccncc2)n1 [Formula 11, 4,6-dimethoxy-2-(pyridin-4-yloxy)pyrimidine] | 95%
10 | CC(C)(C)Oc1cc(OC(C)(C)C)nc(Oc2cccnc2)n1 [Formula 12, 4,6-di-tert-butoxy-2-(pyridin-3-yloxy)pyrimidine] | 86%
11 | CC(C)(C)Oc1ncc(-c2ccccn2)c(OC(C)(C)C)n1 [Formula 13, 2,4-di-tert-butoxy-5-(pyridin-2-yl)pyrimidine] | 86%
12 | Oc1nc(Oc2ccc(F)c(C(F)(F)F)c2)cc(Oc2ccc(F)c(C(F)(F)F)c2)n1 [Formula 14, 4,6-bis(4-fluoro-3-(trifluoromethyl)phenoxy)pyrimidin-2-ol] | 84%
13 | COc1cc(OC)nc(Oc2cccnc2N)n1 [Formula 15, 3-(4,6-dimethoxypyrimidin-2-yloxy)pyridin-2-amine] | 54%

Tested on: HL-60 cell lines
Experiment: FACS analysis of gp96 on cell surface of HL-60 cell lines
Assay type: cell-based
Conditions: 1 mM, 24 hours
Method: FIG. 35 is a graph showing an FACS analysis result using gp96 antibody, on the amount of gp96 protein existing on a cell surface, when HL-60 cell lines were treated with a 2,4-pyrimidine derivatives at a concentration of 1 mM for 24 hours.
Also, HL-60 cell lines were treated with a 2,4-pyrimidine derivative at a concentration of 1 mM for 24 hours, and the amount of gp96 protein existing on a cell surface was analyzed through flow cytometry (FACS) using gp96 antibody.

Row | Molecule | amount of gp96 protein existing on a cell surface
14 | 2-(4,6-dimethoxy-pyrimidin-2-yloxy)-N-isopropyl-3-methyl-butyl amide [KR-S-005] | better effects than KR-S-015; also recorded: better than ester (KR-S-010) or acid (KR-S-009)
15 | CCN(CC)C(=O)C(Oc1nc(OC)cc(OC)n1)C(C)C (centres unmarked) [KR-S-001, 2-(4,6-Dimethoxy-pyrimidin-2-yloxy)-N,N-diethyl-3-methyl-butyl amide] | better effects than KR-S-015; also recorded: better than ester (KR-S-010) or acid (KR-S-009)
16 | COc1cc(OC)nc(OC(C(=O)N(C)OC)C(C)C)n1 (centres unmarked) [KR-S-006, 2-(4,6-dimethoxy-pyrimidin-2-yloxy)-N-methoxy-3,N-dimethyl-butyl amide] | better effects than KR-S-015; also recorded: better than ester (KR-S-010) or acid (KR-S-009)
17 | COc1cc(OC)nc(OC(C(=O)N2CCCCC2)C(C)C)n1 (centres unmarked) [KR-S-007, 2-(4,6-dimethoxy-pyrimidin-2-yloxy)-3-methyl-1-piperidin-1-yl-butan-1-one] | better effects than KR-S-015; also recorded: better than ester (KR-S-010) or acid (KR-S-009)

Tested on: gp96tm transgenic mice
Experiment: not given
Conditions: 2-month intraperitoneal administration, 30 mg/kg
Method: Female gp96tm transgenic mice (Proc Natl Acad Sci USA. 2003 December 23; 100(26): 15824-15829) were bred and maintained at the animal center for pharmaceutical research, Seoul National University. We used age-matched, 12-26 weeks old mice in each experimental group. To suppress cell surface gp96 we used GPM1 compound. Dexamethasone and GPM1 were dissolved in 5% DMSO in phosphate-buffered saline (PBS) and control vehicle was 5% DMSO in PBS. Compounds were administered i.p. every 24 h for 2 months (30 mg/kg/day). Three groups of each 9 mice were examined. All procedures were conducted in accordance with the Guide for the Care and Use of Laboratory Animals, published by the Korean National Institute of Health.
Spleen and lymph node cell suspensions were prepared by grindling tissue through sterile mesh and erythrocytes were lysed with RBC lysis buffer (eBioscience, CA). For surface staining, antibodies were fluoresceinisothiocyanate (FITC)-, phycoerythrin (PE)-, PerCP-, or APC-conjugated. Antibodies used were CD4 (RM4-5, H129.12), CD8 (53-6,7), B220 (RA3-6B2), CD11b (M1/70), CD11c (HL3), CD44 (IM7), CD62L (MEL-14), CD69 (H1.2F3), CD25 (PC61.5), IgM (11/41), IgD (11-26C.2a) (BD Pharmingen, CA), MHC class II (M5/114.15.2), Foxp3 (FJK-16s) (eBioscience, CA), and gp96 (Santacruz, Calif.). After staining, cells were washed and analyzed on a FACS can flow cytometer using CellQuest software (BD Bioscience, Mountain View, Calif.).
Kidney tissue sections of gp96tm transgenic mice were fixed in 10% formaldehyde in PBS and dehydrated using an alcohol gradient. After paraffin infiltration, the tissues were sectioned using a microtome, stained with hematoxylin and eosin (H&E) and analyzed by light microscopy. For immunofluorescent staining, kidneys were sectioned with a cryostat. These cryosections were blocked with normal goat serum, stained with FITC-conjugated goat anti-mouse Ig (BD pharmingen, CA), and then observed by fluorescent microscopy.
The present inventors compared the effect of GPM1 with phosphate-buffered saline containing 5% DMSO and dexamethasone (Dex), an immunosuppressant of glucocorticoid family as negative and positive control, respectively. Each group consisted of age-matched nine female mice. […] After 2 month, the present inventors isolated MHC class II^+ splenocytes and lymph nodes from vehicle-, Dex-, and GPM1-treated mice and determined the portion of gp96^+ cells by flow cytometry.

Row | Molecule | adverse effects / death during administration
18 | C[C@@H]1C[C@H]2[C@@H]3CCC4=CC(=O)C=C[C@]4(C)[C@@]3(F)[C@@H](O)C[C@]2(C)[C@@]1(O)C(=O)CO [dexamethasone, reference compound] | two of nine

Same assay, conditions: mouse, in vivo, 30 mg/kg/day

Row | Molecule | total cell count (spleen)
19 | C[C@@H]1C[C@H]2[C@@H]3CCC4=CC(=O)C=C[C@]4(C)[C@@]3(F)[C@@H](O)C[C@]2(C)[C@@]1(O)C(=O)CO [dexamethasone, reference compound] | 4.80 ± 2.38 × 10^5

Same assay, conditions: splenocytes, after 2 month, 30 mg/kg

Row | Molecule | percentages of gp96+ MHC class II+ cells
20 | C[C@@H]1C[C@H]2[C@@H]3CCC4=CC(=O)C=C[C@]4(C)[C@@]3(F)[C@@H](O)C[C@]2(C)[C@@]1(O)C(=O)CO [dexamethasone, reference compound] | ~25%
